Entries after “also recorded” stand apart in the source; their conditions may differ. Non-standard residues stand in square brackets, D forms with d. Residues, ends and D or L forms follow the SMILES beside them. ξ: configuration not given here. Ile(3ξ) = CCC(C)[C@H](N)C(=O)O; dDap = NC[C@@H](N)C(=O)O; Dap = NC[C@H](N)C(=O)O
What was measured:
[1] = system: EA.hy 926 cell line; test: Growth of EA.hy 926 endothelial cells with MG scavengers and/or methylglyoxal (MTT); format: cell-based, human; details: for viability at 1000 µM: Homo sapiens, EA.hy 926, read-out: Cells + MG scavengers + Methylglyoxal (B); for Difference (B) − (A): Table 2, cells with scavenger + MG minus cells with scavenger alone; for Cells + MG scavengers (A): scavenger 1 mM, no methylglyoxal, number of cells relative to untreated control cells; for effect against suppression of cell growth by MG: scavenger + methylglyoxal; for difference between number of cells growing with compound and with MG and compound: values in brackets; for cell toxicity: text b496, compound alone
Experimental: The cells used for the test are from the EA.hy 926 cell line, which are endothelial cells obtained by the hybridization of human umbilical vein endothelial cells (HUVECs) with lung cancer cells (A549). The EA.hy 926 endothelial cells are incubated in Dulbecco's modified Eagle's Medium (DMEM) enriched with 10% fetal calf serum. The cells are incubated in 12-well plates. Each well initially contains 100,000 cells. Cell growth is achieved by incubating the cells in 2 ml of culture medium after adding or not adding the various potential inhibitors (1 mM) and/or methylglyoxal (600 μM) for 48 hours at 37° C. in a moist atmosphere with 5% CO2.
The number of cells is evaluated in the following way:
The cells are stained using the (4,5-dimethylthiazol-2-yl)-2,5-diphenyltetrazolium bromide (MTT) assay. MTT penetrates in the cell where it is converted into formazan. The quantity of formazan formed is proportional to the number of living cells.
The results are expressed as a relative percentage of the number of cells after treatment compared to the number of control cells without treatment [100*OD (treated cells)/OD (control cells)]. Detection is carried out by UV/visible spectrophotometry at 570 nm.
Principle: MTT (yellow) penetrates the cell and is converted into an insoluble blue compound, formazan, by cleavage of its tetrazolium rings by the mitochondrial dehydrogenase enzymes of living cells. Formazan is solubilized by isopropanol. The number of cells is proportional to the quantity of formazan formed and its absorbance.

[2] = system: lysozyme; test: SDS PAGE electrophoresis of lysozyme incubated with methylglyoxal and inhibitor; format: biochemical; details: lysozyme 10 mg/ml, methylglyoxal 10 mM, inhibitor equimolar, 37° C., 48 hours
Experimental: (§1) Ribonuclease A and lysozyme (10 mg/ml) are incubated in the presence of methylglyoxal (10 mM) or in the presence of methylglyoxal and one of the inhibitors according to the present invention in an equimolar quantity at 37° C. After 48 hours of incubation, the proteins are analyzed by polyacrylamide gel electrophoresis (8%-16% SDS PAGE gel).

[3] = system: RNase A; test: RNase A modifications induced by methylglyoxal (HPLC); format: biochemical; details: RNase A 0.08 mM, methylglyoxal 32 mM, compound 38 mM, 21 hours at 37° C.
Experimental: FIGS. 11 to 13 present the results obtained by HPLC for three compounds according to the present invention, L-DAPA-L-Ile (example 18), L-DAPA-L-Val (example 23) and L-DAPA-L-Leu (example 1), on RNase A modifications induced by methylglyoxal. HPLC conditions are as follows: C-18, Symmetry 300 (4.6×250 mm) column, injection volume 100 μl of reaction mixture diluted to 1/10; flow 1 ml/min; temperature 40° C.; solvent A: H2O+0.1% TFA; solvent B: 60/40 CH3CN/H2O+0.1% TFA; linear gradient of 20% B to 80% B in 20 minutes; detection: UV at 215 nm: PDA (chromatograms extracted at 215 nm).

[4] = system: glyoxalase I; test: Glyoxalase I treated with methylglyoxal: non-denaturing electrophoresis and enzymatic activity; format: biochemical
Experimental: MG reacts with a protein's lysine and arginine residues, thus altering the charges on the modified polypeptide. […] The exposure of glyoxalase I to MG (10 mM) for 24 hours increases the mobility of the protein toward the positive electrode, a change that is consistent with the loss of positive charges from the ε-amino and guanidino groups and the gain of negative charges.
The incubation of glyoxalase I, a key protein in the α-oxoaldehyde detoxification system, in the presence of methylglyoxal, modifies the protein. This modification causes a change in charge and a 50% decrease in enzymatic activity compared to the control.

[5] = system: ribonuclease A; test: Enzymatic activity of ribonuclease A after treatment with methylglyoxal and inhibitors (methylene blue RNA staining); format: biochemical; details: ribonuclease A treated with methylglyoxal (MG) + inhibitor in equimolar quantity, 37° C.; control RNase 100, RNase + methylglyoxal 10.11%
Experimental: as §1
The enzymatic activity of ribonuclease A after treatment with methylglyoxal and the various inhibitors according to the present invention is measured using the methylene blue RNA staining technique of Greiner-Stöffele et al. (Anal. Biochem. (1996) 240, 24).

[6] = system: ribonuclease A; test: SDS PAGE electrophoresis of ribonuclease A incubated with methylglyoxal and inhibitor; format: biochemical; details: ribonuclease A 10 mg/ml, methylglyoxal 10 mM, inhibitor equimolar, 37° C., 48 hours
Experimental: as §1
The AGE inhibitors according to the present invention, namely L-DAPA-L-Leu (example 1) and L-DAPA-L-Ile (example 18), or AG (10 mM) are incubated with MG and ribonuclease A for […] at 37° C.

[7] = scavenger 1 mM + methylglyoxal 600 μM, 48 hours, relative to untreated control cells, MG alone 24, mean of 3 experiments
[8] = 48 hours, mean of 3 experiments

Compound	viability at 1000 µM [1, 7] [%]	Difference (B) − (A) [1]	toxicity with respect to EA cells ([1]; compound alone, 1 mM)	Cells + MG scavengers (A) [1, 8] [%]	effect against suppression of cell growth by MG [1]	cell survival when incubated with MG [1] [%]	difference between number of cells growing with compound and with MG and compound [1]	protection from structural modifications (dimer form) caused by methylglyoxal [2]	RNase A modifications induced by methylglyoxal [3]	gain of negative charge of glyoxalase I exposed to MG ([4]; MG 10 mM, 24 hours, non-denaturing electrophoresis)	inhibition of glyoxalase I enzymatic activity and structural modification by methylglyoxal ([4]; MG alone: 50% decrease in enzymatic activity)	Enzymatic activity (%) [5] [%]	protection from structural modifications (dimer form) caused by methylglyoxal [6]	cell toxicity [1] [%]	Cells + MG scavengers + Methylglyoxal (B) [1, 7] [%]
CN(C)C(=N)N=C(N)N [Metformin, reference compound]	45	−46	extremely low toxicity	91	less effective; also recorded: weak scavenger	–	–	–	–	–	–	–	–	–	–
CCC(C)[C@H](NC(=O)[C@@H](N)CN)C(=O)O (stereo partly drawn) [example 18, L-DAPA-L-Ile.2HCl] (H-[Dap]-[Ile(3ξ)]-OH)	79	−7	–	86	same trend	79	−9	provides protection	prevent the modifications to RNase A	inhibits the gain of negative charge	prevents the inhibition exerted by methylglyoxal and protects against structural modifications	90.77	provides protection	–	–
CC(C)[C@H](NC(=O)[C@@H](N)[C@H](N)C(=O)N[C@H](C(=O)O)C(C)C)C(=O)O [example 29, (2S,3S)-DASA-1-L-Val-4-L-Val.2HCl]	70	−15	–	85	–	–	−15	provides protection	–	–	–	75.09	provides protection	–	–
NC[C@H](N)C(=O)N[C@@H](Cc1ccccc1)C(=O)O [example 21, L-DAPA-L-Phe.2HCl] (H-[Dap]-Phe-OH)	71	−6	–	77	–	–	−6	–	–	–	–	70.20	–	–	–
NCCC(=O)N[C@@H](Cc1cnc[nH]1)C(=O)O [Carnosine, β-alanyl-L-histidine, reference compound]	50	−49	–	99	less effective	–	–	–	–	–	–	–	–	–	–
CC(C)C[C@H](NC(=S)[C@@H](N)CN)C(=O)O [example 16, L-DAPA-L-(S)-Leu.2HCl]	74	+3	–	71	–	–	–	–	–	–	–	75.69	–	–	–
C[C@@H](NC(=O)[C@H](N)CN)C(=O)O [example 8, D-DAPA-D-Ala.2HCl] (H-[dDap]-[dA]-OH)	71	−6	–	77	–	–	+1	provides protection	–	–	–	87.37	provides protection	39	–
CC(C)C[C@H](NC(=O)[C@@H](N)CN)C(=O)O [example 3, L-DAPA-L-Leu.2TFA] (H-[Dap]-Leu-OH)	–	–	–	–	–	–	−18	–	–	–	–	–	–	–	–
NC[C@H](N)C(=O)NCC(=O)O [example 17, L-DAPA-Gly.2HCl] (H-[Dap]-Gly-OH)	50	−4	–	54	–	–	+3	provides protection	–	–	–	85.61	provides protection	43	–
CC(C)C[C@H](NC(=O)[C@@H](N)[C@H](C)N)C(=O)O [example 12, (2S,3S)-DABA-L-Leu.2HCl]	73	−4	–	77	–	–	−4	provides protection	–	–	–	80.97	provides protection	–	–
N[C@H](C(=O)NCC(=O)O)[C@@H](N)C(=O)NCC(=O)O [example 28, (2S,3R)-DASA-1-Gly-4-Gly.2HCl]	54	−7	–	61	–	–	–	–	–	–	–	–	–	–	–
NCCCC[C@H](N)C(=O)O [L-Lys, reference compound]	–	−38	–	81	–	–	–	–	–	–	–	–	–	–	43
